In patent US12564580B2, “Mitochondria-targeted isoketal/isolevuglandin scavengers and uses thereof” (Vanderbilt University, priority 2020, dated 2026):

Columns and labels:
[1] = system: kidney (renal cortex and medulla); assay: Kidney histological analyses in LPS model
Description: Three months old C57BL/6J mice (25-28 g) were supplemented with mito2HOBA (drinking water, 0.1 g/L) for 72 hours prior to LPS injection (25 μg/g). […] (C) Histopathological scores of renal injuries as described in methods section. […] Data are mean±STD *P<0.01 vs LPS (n=6), *P<0.01 vs LPS (n=10).
FIGS. 6A-H show histological analysis of cellular injury in kidneys of control, mito2HOBA supplemented, LPS-injected and LPS+mito2HOBA-treated mice. Representative sections from control mice show normal glomeruli (g), proximal tubules (P), and distal tubules (*) in the cortex (A) and medulla (B).
Kidneys were harvested from mice and placed immediately in 10% formalin. Following fixation, kidneys were washed with saline, placed in 70% ethanol, and processed in the following sequence: 70% ethanol; 80% ethanol; 95% ethanol; 100% ethanol; 100% xylene. Then kidneys were embedded in POLY/Fin paraffin (ThermoFisher). Five-μm sections were cut using a Leitz 1512 microtome and were mounted on glass slides. Sections were stained with hematoxylin and eosin and were viewed using an Olympus IX70 microscope. Images were captured with a Jenoptix Progress C12 digital camera. Histopathological scores of kidneys were measured as follows: (0) No tubular injury; (1) <10% tubules injured; (2) 10-25% tubules injured; (3) 25-50% tubules injured; (4) 50-75% tubules injured; (5) >75% tubules injured.

Water solubility = format: physicochemical
From the text: Mito2HOBA is a water-soluble compound which can be supplied in the media and provided to animals in the drinking water.

mPTP = format: in vivo; details: treatment of Ang II-infused mice with mito2HOBA
[2] = system: aortic mitochondrial proteins (SOD2, CypD, NDUFS1); assay: Western blot analysis of mitochondrial acetylation and isoLG adducts in aortas of angiotensin II-infused mice; format: in vivo, mouse
From the text: FIGS. 11A-D show Western blot analysis of mitochondrial acetylation in aortas isolated from Sham and angiotensin II-infused mice treated with mito2HOBA. (A) Typical Western blots isoLG-protein adducts (D11 ab), Sirt3, Acetyl-Lysine, SOD2-K68-Acetylation, CypD Acetylation, isoLG adduct with complex I NDUFS1 75 KDa subunit and mitochondrial complex I; (B) Sirt3 levels; (C) mitochondrial protein lysine acetylation; (D) SOD2-K68-Acetyl levels; and (E) CypD-Acetyl levels. Mice supplied with mito2HOBA (m2H) in drinking water (0.1 g/L) and angiotensin II (osmotic pump, 0.7 mg/kg/day) for 14 days. Data were normalized by Complex I levels (Sham is 100%). Results are mean±SEM (n=5). *P<0.01 vs Sham, **P<0.01 vs angiotensin II (Ang II).
Dihydroethidium (DHE) and MitoSOX superoxide probes were supplied by Invitrogen (Grand Island, NY). Sirt3 (54905) antibodies were from Cell Signaling. Acetyl-K68-SOD2 (ab137037), complex I NDUFS1 75 kDa subunit (ab22094) and CypD (ab110324) and GAPDH (ab8245) antibodies were from Abcam. SOD2 (sc30080) antibodies were obtained from Santa Cruz Biotechnology. Acetyl-lysine antibodies (ab3839) were provided by Millipore-Sigma. D11, an isoLG-lysyl adducts-specific scFv antibody, has been previously characterized. All antibodies were used at 1000-fold dilution. […] All other reagents were obtained from Sigma (St Louis, MO).

[3] = system: LPS-injected C57BL/6J mice; assay: Survival in LPS model of sepsis; format: in vivo, mouse
From the text: All experimental procedures were approved by Vanderbilt and Mercer Institutional Animal Care and Use Committees. The use of LPS is well-established model of bacterial sepsis in rodents (1-3). The concentrations of LPS that can be used to induce sepsis in mice depend on many factors (source of LPS, age/size, and strains of animals, desired time of response, target of interest, etc.) and may vary between different manufactures. To test the protective properties of mito2HOBA, the present inventors used LPS from E. coli O111:B4 (Sigma L8274). […] The same lot of LPS was used throughout entire study.

renal ATP = assay: ATP levels in kidney tissue of angiotensin II-infused mice; format: in vivo, mouse; details: Ang II plus mito2HOBA
Description: FIGS. 13A-B show mito2HOBA reduces mPTP opening and prevents mitochondrial dysfunc¬tion. C57B1/6J mice were infused with Ang II ([…]) and mito2HOBA in the drinking water (0.1 g/L). Following 14 days of Ang II infusion the animals were sacrificed and kidneys were isolated for mitochondrial studies. Addition of CaCl2 to mitochondria above Ca2+ retention capacity led to mPTP opening and mitochondria swelling. 71 Mitochondria isolated from Ang II-infused mice had significant reduction in Ca2+ capacity due to increased mPTP opening and CypD inhibitor Cyclosporine A (CsA) rescued Ca2+ retention capacity (A). Respiratory control ratio (State 3/State 4) was measured in isolated kidney mitochondria with glutamate and malate (B). Control level is 100%. (C) Renal ATP was measured in freshly isolated tissue by luciferase-based luminescent assay. 72 Results are mean±SEM. *P<0.01 vs Sham, **P<0.01 vs Angiotensin II (n=5).
ATP concentration in the kidney tissue was measured by luminescent ATP detection assay kit (Abcam; Cat #ab113849). Luminescence signals were read using a Biotek Synergy H1 plate reader. Luminescence units were calculated as μmol/mg protein based on the ATP calibration curve and protein concentration measured by the Bradford method.

kidney mitochondria = assay: Respiration of kidney mitochondria isolated from mito2HOBA and LPS treated mice; format: in vivo, mouse
Description: To study the mitochondrial function, the combination of glutamate and malate (GM) or succinate was used as substrates. Since glutamate can be converted via transamination to α-ketoglutarate and further to succinate, the present inventors used complex II inhibitor malonate to define specific complex I respiration. The basal respiration (1) was measured in mitochondria supplemented with respiratory substrates. Then ADP was added to measure the coupled respiration (2). The proton leak (3) was determined after addition of complex V inhibitor oligomycin A. The uncoupled respiration (4) was measured after supplementation with CCCP. Finally, antimycin A plus rotenone were added to assess non-mitochondrial respiration (5) as described previously [32].
In order to define specific alterations in the mitochondrial respiration in LPS model of sepsis and test the potential protection by mito2HOBA the present inventors adopted the Seahorse protocol for mitochondrial studies in the presence of mitochondrial substrates Glutamate+Malate (GM) or succinate. To define the specific role of complex I mediated respiration the present inventors performed measurements in the presence of complex II inhibitor malonate (5 mM). The present inventors measured basal respiration in the presence of mitochondria plus substrates, coupled respiration after addition of ADP (2 mM), proton leak following addition of oligomycin A (2.5 μM) uncoupled respiration after supplementation of CCCP (1 μM) and non-mitochondrial respiration with mixture of antimycin A and rotenone (1 μM) Mitochondrial studies where independently verified in two labs using Oroboros O2k high-resolution respirometry and Fluorescence Lifetime Micro Oxygen Monitoring System (Instech Laboratories, Inc). Kidney mitochondria were isolated from control sham mice, LPS-injected mice (25 μg/g, 16 hours post-injection), mito2HOBA supplemented mice (0.1 g/Liter drinking water, 4 days), or mito2HOBA plus LPS (0.1 g/Liter mito2HOBA for 3 days plus LPS injection).

complex I/complex II = details: kidney mitochondria after LPS treatment, mito2HOBA supplementation
Description: Three months old C57BL/6J mice (25-28 g) were supplemented with mito2HOBA (drinking water, 0.1 g/L) for 72 hours prior to LPS injection (25 μg/g). Complex I/Complex II activity ratio is expressed as a % compared to Control (100%). […] Data are mean±STD *P<0.01 vs LPS (n=6), *P<0.01 vs LPS (n=10).
Forty C57BL/6J 3-month old mice were equally divided in four groups: Sham (Control), LPS-injected mice (LPS), mice supplemented with mito2HOBA (0.1 g/Liter) in the drinking water (mito2HOBA), and LPS-injected mice pretreated with mito2HOBA in the drinking water (LPS+mito2HOBA). […]
Mitochondrial complex I and complex II activities were evaluated after 24 hours of LPS injection as described above. […]
Respiration rates were measured using Fluorescence Lifetime Micro Oxygen Monitoring System (Instech Laboratories, Inc.). […] OXPHOS specific enzyme activities in submitochondrial particles (SMP) were measured using a Varian Cary 300 Bio UV/Vis spectrophotometer with temperature controlling cell holder. […] Complex I activity was monitored in triplicate samples as the reduction of 10 μM decylubiquinone at 272 nm by 15 μg of mitochondrial protein with 40 μM NADH. […] Complex II activity was measured by monitoring the absorbance at 600 nm during the oxidation of 50 μM DCPIP as artificial electron acceptor by 65 μM ubiquinone in presence of 2 mM KCN and 2 μg/ml rotenone and antimycin A.

mouse aortic rings = assay: Vasodilatation study of aortic rings (endothelial-dependent relaxation); format: in vivo; details: Ang II plus mito2HOBA
Description: FIGS. 12A-D show the effect of mito2HOBA supplementation on mitochondrial superoxide (A), vascular superoxide (B), endothelial nitric oxide (C) and endothelial-dependent relaxation (D) in angiotensin II-infused mice. Mitochondrial and vascular O2⋅ was measured by mitochondria-targeted superoxide probe mitoSOX (1 μM) or untargeted superoxide probe DHE (50 μM) using HPLC.46 Endothelial nitric oxide was analyzed by NO spin trap Fe(DETC)2 and ESR.47 C57B1/6J mice were infused with Ang II and mito2HOBA was provided in the drinking water (0.1 g/L). […] Results are mean±SEM. *P<0.01 vs Sham, **P<0.01 vs Ang II (n=6).
Isometric tension studies were performed on 2 mm mouse aortic rings dissected free of perivascular fat from C57B/6J mice. Studies were performed in a horizontal wire myograph (DMT, Aarhus, Denmark, models 610 M and 620 M) containing physiological salt solution with the composition of 130 mM NaCl, 4.7 mM KCl 1.2 mM MgSO4, 1.2 mM KH2PO4, 15 mM NaHCO3, 5.5 mM glucose, and 1.6 mM CaCl2. The isometric tone of each vessel was recorded using LabChart Pro v7.3.7 (AD Instruments, Australia). […] Once the vessels reach a steady state contraction, increasing concentrations of acetylcholine were administered, and the response to each concentration of drug was recorded.

[4] = LPS plus mito2HOBA vs LPS alone
[5] = LPS 25 μg/g plus mito2HOBA 0.1 g/L
[6] = mito2HOBA alone, 0.1 g/L drinking water, 4 days

## NCc1ccc(OCCCC[P+](c2ccccc2)(c2ccccc2)c2ccccc2)cc1O [mito2HOBA]
[1]; LPS plus mito2HOBA
  renal cortex injury: the cortex appeared normal
[1]; [4]
  histopathological scores of renal injuries: significant reduction in cellular injury
  renal medulla injury: the extent and degree of injury was less
[1]; mice supplemented with mito2HOBA without LPS
  kidney histology, mito2HOBA alone: appeared normal
Water solubility
  water solubility: water-soluble
mPTP
  renal mitochondrial Ca2+-retention capacity: completely prevented decline
[2]; % compared to control mice, Ang II plus mito2HOBA
  SOD2 acetylation in aortas: 147%
[2]; % compared to control, Ang II plus mito2HOBA
  CypD acetylation in aortas: 156%
[2]; Ang II 14 days, mito2HOBA 0.1 g/L (Ang II alone 420%)
  hyperacetylation of mitochondrial proteins in aortas: normalized
[2]; Ang II plus mito2HOBA
  isoLG-complex I NDUFS1 subunit adduct levels: reduced
  mitochondrial isoLG adducts in aortic mitochondria: inhibited formation
[3]; 96 hours post-injection of LPS 25 μg/g, mito2HOBA 0.1 g/L drinking water
  increase of animal survival: 3 fold
[3]; LPS model of sepsis, mito2HOBA supplementation
  reduction of animal immediate and extended mortality: 3 fold
Renal ATP
  decrease in renal ATP levels: prevented
Kidney mitochondria; [5]
  LPS-induced impairment of GM-mediated respiration: significantly protected
  LPS-induced impairment of complex I-specific oxygen consumption in the presence of GM+malonate: significantly protected
  mitochondrial protein leak: did not affect
  succinate mediated respiration: did not affect
Kidney mitochondria; [6]
  complex I-specific oxygen consumption in the presence of GM+malonate: improved
  succinate-driven respiration: slightly reduced
Complex I/complex II
  complex I/complex II activity ratio: completely preserved
Mouse aortic rings
  endothelial-dependent relaxation: preserved
